In patent publication US9113629B2, “4-amino-6-(4-substituted-phenyl)-picolinates and 6-amino-2-(4-substituted-phenyl)-pyrimidine-4-carboxylates and their use as herbicides” (DOW AGROSCIENCES LLC, priority 2013, dated 2015):

Columns and labels:
Experiment in all cases: Post-emergent Test III, herbicidal activity in wheat and barley
Format in all cases: in vivo
[1] = tested on: HORSS: barley, including spring and winter (Hordeum vulgare); conditions: 21 days after application; for pest or weed control at 35 g/ha / pest or weed control at 70 g/ha: Hordeum vulgare, post-emergence, 504 h, read-out: Visual Gorowth Reduction (%) 21 days After Application HORSS; for pest or weed control at 35 g/ha: 35 g ai/ha; for pest or weed control at 70 g/ha: 70 g ai/ha; for GR20 HORSS: probit analysis, dose for 20 percent growth reduction (crop)
Outline: (§1)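 GR20, GR50, GR80 and GR90 come from probit analysis of visual injury scores (0 = none, 100 = complete kill) taken 21 d after treatment. Foliar application was by track sprayer delivering 187 L/ha at five rates, from high down to 1/16×, onto greenhouse plants at the 2–3 leaf stage, with solvent-blank controls.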

[2] = tested on: KCHSC: kochia (Kochia scoparia); conditions: 21 days after application; for pest or weed control at 35 g/ha / pest or weed control at 70 g/ha: Bassia scoparia, post-emergence, 504 h, read-out: Visual Gorowth Reduction (%) 21 days After Application KCHSC; for pest or weed control at 35 g/ha: 35 g ai/ha; for pest or weed control at 70 g/ha: 70 g ai/ha; for GR50 KCHSC / GR80 KCHSC: probit analysis; for GR50 KCHSC: dose for 50 percent growth reduction; for GR80 KCHSC: dose for 80 percent growth reduction
Outline: as §1

[3] = tested on: MATSS: scented mayweed (Matricaria chamomilla), pineappleweed (Matricaria matricarioides); conditions: 21 days after application; for pest or weed control at 35 g/ha / pest or weed control at 70 g/ha: Matricaria chamomilla, post-emergence, 504 h, read-out: Visual Gorowth Reduction (%) 21 days After Application MATSS; for pest or weed control at 35 g/ha: 35 g ai/ha; for pest or weed control at 70 g/ha: 70 g ai/ha; for GR50 MATSS / GR80 MATSS: probit analysis; for GR50 MATSS: dose for 50 percent growth reduction; for GR80 MATSS: dose for 80 percent growth reduction
Outline: as §1

[4] = tested on: SASKR: Russian thistle (Salsola iberica); conditions: 21 days after application; for pest or weed control at 35 g/ha / pest or weed control at 70 g/ha: Salsola tragus, post-emergence, 504 h, read-out: Visual Gorowth Reduction (%) 21 days After Application SASKR; for pest or weed control at 35 g/ha: 35 g ai/ha; for pest or weed control at 70 g/ha: 70 g ai/ha; for GR50 SASKR / GR80 SASKR: probit analysis; for GR50 SASKR: dose for 50 percent growth reduction; for GR80 SASKR: dose for 80 percent growth reduction
Outline: as §1

[5] = tested on: TRZSS: wheat, including spring and winter (Triticum aestivum); conditions: 21 days after application; for pest or weed control at 35 g/ha / pest or weed control at 70 g/ha: Triticum aestivum, post-emergence, 504 h, read-out: Visual Gorowth Reduction (%) 21 days After Application TRZSS; for pest or weed control at 35 g/ha: 35 g ai/ha; for pest or weed control at 70 g/ha: 70 g ai/ha; for GR20 TRZSS: probit analysis, dose for 20 percent growth reduction (crop)
Outline: as §1

[6] = tested on: VERPE: bird's-eye speedwell (veronica persica); conditions: 21 days after application; for pest or weed control at 35 g/ha / pest or weed control at 70 g/ha: Veronica persica, post-emergence, 504 h, read-out: Visual Gorowth Reduction (%) 21 days After Application VERPE; for pest or weed control at 35 g/ha: 35 g ai/ha; for pest or weed control at 70 g/ha: 70 g ai/ha; for GR50 VERPE / GR80 VERPE: probit analysis; for GR50 VERPE: dose for 50 percent growth reduction; for GR80 VERPE: dose for 80 percent growth reduction
Outline: as §1

[7] = tested on: VIOSS: wild pansy (Viola tricolor), field violet (Viola arvensis); conditions: 21 days after application; for pest or weed control at 35 g/ha / pest or weed control at 70 g/ha: Viola tricolor, post-emergence, 504 h, read-out: Visual Gorowth Reduction (%) 21 days After Application VIOSS; for pest or weed control at 35 g/ha: 35 g ai/ha; for pest or weed control at 70 g/ha: 70 g ai/ha; for GR50 VIOSS / GR80 VIOSS: probit analysis; for GR50 VIOSS: dose for 50 percent growth reduction; for GR80 VIOSS: dose for 80 percent growth reduction
Outline: as §1

| SMILES | pest or weed control at 35 g/ha [1] | pest or weed control at 70 g/ha [1] | GR20 HORSS [1] | pest or weed control at 35 g/ha [2] | pest or weed control at 70 g/ha [2] | GR50 KCHSC [2] | GR80 KCHSC [2] | pest or weed control at 35 g/ha [3] | pest or weed control at 70 g/ha [3] | GR50 MATSS [3] | GR80 MATSS [3] | pest or weed control at 35 g/ha [4] | pest or weed control at 70 g/ha [4] | GR50 SASKR [4] | GR80 SASKR [4] | pest or weed control at 35 g/ha [5] | pest or weed control at 70 g/ha [5] | GR20 TRZSS [5] | pest or weed control at 35 g/ha [6] | pest or weed control at 70 g/ha [6] | other results |
| --- | --- | --- | --- | --- | --- | --- | --- | --- | --- | --- | --- | --- | --- | --- | --- | --- | --- | --- | --- | --- | --- |
| Nc1c(F)c(-c2ccc(Br)cc2F)nc(C(=O)O)c1Cl [Compound 163] | 85 to 94% | 95 to 100% | 1 g ai/ha | 75 to 84% | 85 to 94% | 8 g ai/ha | 36 g ai/ha | 75 to 84% | 95 to 100% | 5 g ai/ha | 24 g ai/ha | 75 to 84% | 85 to 94% | 3 g ai/ha | 27 g ai/ha | 75 to 84% | 75 to 84% | 1 g ai/ha | 75 to 84% | 95 to 100% | GR50 VERPE [6]: 13 g ai/ha; GR80 VERPE [6]: 30 g ai/ha; pest or weed control at 35 g/ha [7]: 75 to 84%; pest or weed control at 70 g/ha [7]: 95 to 100%; GR50 VIOSS [7]: 14 g ai/ha; GR80 VIOSS [7]: 29 g ai/ha |
| C#Cc1ccc(-c2nc(C(=O)O)c(Cl)c(N)c2F)c(F)c1 [Compound 108] | 30 to 44% | 45 to 59% | 16 g ai/ha | 0 to 29% | 0 to 29% | >140 g ai/ha | >140 g ai/ha | 30 to 44% | 60 to 74% | 58 g ai/ha | >140 g ai/ha | 0 to 29% | 30 to 44% | 136 g ai/ha | >140 g ai/ha | 75 to 84% | 75 to 84% | 6 g ai/ha | 60 to 74% | 75 to 84% | GR50 VERPE [6]: 22 g ai/ha; GR80 VERPE [6]: 67 g ai/ha; pest or weed control at 35 g/ha [7]: 30 to 44%; pest or weed control at 70 g/ha [7]: 30 to 44%; GR50 VIOSS [7]: 85 g ai/ha; GR80 VIOSS [7]: >140 g ai/ha |
| Nc1cc(-c2ccc(I)c(F)c2F)nc(C(=O)O)c1Cl [Compound 38] | 85 to 94% | 85 to 94% | 1 g ai/ha | 85 to 94% | 85 to 94% | 1 g ai/ha | 24 g ai/ha | 60 to 74% | 85 to 94% | 21 g ai/ha | 56 g ai/ha | 60 to 74% | 60 to 74% | 17 g ai/ha | 68 g ai/ha | 85 to 94% | 85 to 94% | 1 g ai/ha | 30 to 44% | 60 to 74% | GR50 VERPE [6]: 42 g ai/ha; GR80 VERPE [6]: 112 g ai/ha; pest or weed control at 35 g/ha [7]: 95 to 100%; pest or weed control at 70 g/ha [7]: 95 to 100%; GR50 VIOSS [7]: 13 g ai/ha; GR80 VIOSS [7]: 26 g ai/ha |
| COC(=O)c1nc(-c2ccc(I)c(F)c2F)c(F)c(N)c1Cl [Compound 99] | 85 to 94% | 95 to 100% | 1 g ai/ha | 75 to 84% | 85 to 94% | 9 g ai/ha | 27 g ai/ha | 30 to 44% | 45 to 59% | 63 g ai/ha | >140 g ai/ha | 75 to 84% | 75 to 84% | 10 g ai/ha | 48 g ai/ha | 85 to 94% | 85 to 94% | 1 g ai/ha | 95 to 100% | 95 to 100% | GR50 VERPE [6]: 8 g ai/ha; GR80 VERPE [6]: 17 g ai/ha; pest or weed control at 35 g/ha [7]: 95 to 100%; pest or weed control at 70 g/ha [7]: 95 to 100%; GR50 VIOSS [7]: 9 g ai/ha; GR80 VIOSS [7]: 19 g ai/ha |
